Laboratory results reported in ChEMBL document CHEMBL4602732, “Optimizing Pyrazolopyrimidine Inhibitors of Calcium Dependent Protein Kinase 1 for Treatment of Acute and Chronic Toxoplasmosis” (J Med Chem, 2020).
One block for each compound: values may come before it.

Legend:
[1] = Half life in human liver microsomes at 10 uM preincubated for 10 mins followed by NADPH addition by LC-MS/MS analysis; assay type: ADME, Microsome; conditions: for half-life at 10 µM: liver microsomes; for t1/2: microsomes, 10 µM
LCK = LCK (Homo sapiens, UniProt P06239); assay: Inhibition of wild-type human partial length LCK (R207 to P509 residues) expressed in bacterial expression system at 10 uM by Kinomescan method relative to control
Chain of LCK (P06239 whole entry, the tested form may be a part): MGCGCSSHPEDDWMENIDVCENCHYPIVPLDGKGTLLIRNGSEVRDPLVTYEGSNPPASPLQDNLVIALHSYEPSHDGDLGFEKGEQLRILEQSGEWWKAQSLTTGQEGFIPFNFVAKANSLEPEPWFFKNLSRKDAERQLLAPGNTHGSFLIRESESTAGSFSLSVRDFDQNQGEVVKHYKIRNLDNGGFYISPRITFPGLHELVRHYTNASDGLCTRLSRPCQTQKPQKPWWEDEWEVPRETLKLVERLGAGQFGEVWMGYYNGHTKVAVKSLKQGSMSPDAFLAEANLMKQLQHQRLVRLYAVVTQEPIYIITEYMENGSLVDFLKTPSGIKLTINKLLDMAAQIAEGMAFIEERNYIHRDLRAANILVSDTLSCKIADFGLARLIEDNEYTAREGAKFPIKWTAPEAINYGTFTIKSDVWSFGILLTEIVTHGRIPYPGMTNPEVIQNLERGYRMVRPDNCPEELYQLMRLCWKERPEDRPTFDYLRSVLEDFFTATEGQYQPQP

[2] = molecular target: Voltage-gated inwardly rectifying potassium channel KCNH2 (Homo sapiens, UniProt Q12809); assay: Inhibition of human ERG expressed in CHOK1 cells by patch-clamp electrophysiology assay; assay type: cell-based, CHO-K1
Chain of Voltage-gated inwardly rectifying potassium channel KCNH2 (Q12809 whole entry): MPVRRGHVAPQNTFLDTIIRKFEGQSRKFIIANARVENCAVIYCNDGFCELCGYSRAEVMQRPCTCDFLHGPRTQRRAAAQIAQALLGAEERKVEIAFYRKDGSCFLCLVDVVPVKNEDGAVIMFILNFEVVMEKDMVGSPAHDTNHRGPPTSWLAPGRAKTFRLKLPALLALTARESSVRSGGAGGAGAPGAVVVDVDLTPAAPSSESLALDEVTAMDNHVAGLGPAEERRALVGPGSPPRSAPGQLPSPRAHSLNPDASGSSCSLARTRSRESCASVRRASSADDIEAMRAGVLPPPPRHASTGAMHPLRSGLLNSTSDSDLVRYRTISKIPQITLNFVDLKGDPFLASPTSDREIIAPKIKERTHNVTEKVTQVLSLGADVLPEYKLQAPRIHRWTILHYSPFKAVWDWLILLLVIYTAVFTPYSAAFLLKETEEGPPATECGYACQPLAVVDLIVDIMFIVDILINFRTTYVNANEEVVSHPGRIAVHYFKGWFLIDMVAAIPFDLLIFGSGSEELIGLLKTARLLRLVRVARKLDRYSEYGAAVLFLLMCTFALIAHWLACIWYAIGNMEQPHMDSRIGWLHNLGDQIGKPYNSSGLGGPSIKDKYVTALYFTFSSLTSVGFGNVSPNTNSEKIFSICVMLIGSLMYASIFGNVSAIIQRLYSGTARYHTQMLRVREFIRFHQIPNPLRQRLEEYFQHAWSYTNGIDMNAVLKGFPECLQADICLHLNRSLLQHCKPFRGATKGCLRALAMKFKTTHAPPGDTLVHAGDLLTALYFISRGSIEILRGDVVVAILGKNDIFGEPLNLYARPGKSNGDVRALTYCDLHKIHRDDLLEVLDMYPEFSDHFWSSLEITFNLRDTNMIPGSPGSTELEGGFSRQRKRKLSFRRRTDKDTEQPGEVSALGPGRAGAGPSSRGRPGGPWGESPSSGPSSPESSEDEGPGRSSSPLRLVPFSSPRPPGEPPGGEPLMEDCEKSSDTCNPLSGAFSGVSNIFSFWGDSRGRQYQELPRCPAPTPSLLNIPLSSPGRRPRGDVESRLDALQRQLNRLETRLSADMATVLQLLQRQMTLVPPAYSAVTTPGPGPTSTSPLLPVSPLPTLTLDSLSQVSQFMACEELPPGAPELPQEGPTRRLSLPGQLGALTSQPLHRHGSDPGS

[3] = Half life in CD1 mouse at 3 mg/kg, iv or 10 mg/kg, po administered via gavage by LC-MS/MS analysis; assay type: ADME, organism-based; conditions: in vivo
[4] = Inhibition of Toxoplasma gondii full-length wild-type C-terminal His-tagged CDPK1 expressed in Escherichia coli BL21(DE3)V2RpAcYc-LIC+LamP using syntide-2 peptide as substrate incubated for 20 to 40 mins by ELISA
MDR1 = assay: Efflux ratio of apparent permeability across basolateral to apical side over apical to basolateral side in MDCK2-MDR1 cells at 2 uM measured after 150 mins by LC-MS/MS analysis; assay type: ADME, cell-based, Canis lupus familiaris; conditions: dog, MDCK-MDR1
[5] = Cytotoxicity against human Caco2 cells assessed as cell growth at 20 uM measured after 72 hrs by cellTiter 96 AQueous non-radioactive cell proliferation assay relative to control; assay type: cell-based, Caco-2; conditions: read-out: Activity
[6] = Cytotoxicity against MDCK cells assessed as cell growth at 20 uM measured after 72 hrs by cellTiter 96 AQueous non-radioactive cell proliferation assay relative to control; assay type: cell-based, Canis lupus familiaris; conditions: dog, read-out: Activity
[7] = Cytotoxicity against human CMEC/D3 cells assessed as cell growth at 20 uM measured after 72 hrs by cellTiter 96 AQueous non-radioactive cell proliferation assay relative to control; assay type: cell-based, hCMEC/D3; conditions: read-out: Activity
[8] = Kinetic solubility of the compound in pH 7.4 phosphate buffer measured after 24 hrs by UV-HPLC analysis; assay type: physicochemical; conditions: pH 7.4, 24 h
Toxoplasma gondii [9] = assay: Antiparasitic activity against type 2 Toxoplasma gondii ME49 tachyzoites infected in HFF assessed as reduction in parasite growth; assay type: functional, organism-based
[10] = Protein binding in mouse brain assessed as unbound fraction; assay type: ADME, tissue-based
[11] = system: Src (human) versus Toxoplasma gondii CDPK1; assay: Selectivity ratio of IC50 for inhibition of human Src expressed in Escherichia coli BL21 to IC50 for inhibition of Toxoplasma gondii full-length wild-type C-terminal His-tagged CDPK1 expressed in Escherichia coli BL21(DE3)V2RpAcYc-LIC+LamP; assay type: toxicity; conditions: read-out: Ratio IC50
[12] = Oral bioavailability in CD1 mouse at 10 mg/kg administered via gavage by LC-MS/MS analysis; assay type: ADME, organism-based; conditions: in vivo
[13] = Ratio of drug level in central nervous system to plasma in CD1 mouse at 10 mg/kg, po administered via gavage measured after 8 hrs by LC-MS/MS analysis; assay type: ADME, organism-based, CNS/Plasma; conditions: central nervous system and plasma
[14] = Apparent permeability across apical to basolateral side in MDCK2-MDR1 cells at 2 uM measured after 150 mins by LC-MS/MS analysis; assay type: ADME, cell-based, Canis lupus familiaris; conditions: dog, mdck-mdr1, […]
Aldehyde oxidase = molecular target: T1, Aldehyde oxidase (Homo sapiens, UniProt Q06278); assay: Drug metabolism in human liver S9 fraction assessed as aldehyde oxidase-mediated drug metabolism by measuring rate of parent compound decay at 1 uM measured after 90 mins by LC-MS/MS analysis; assay type: ADME, subcellular
T1 sequence (Q06278 whole entry): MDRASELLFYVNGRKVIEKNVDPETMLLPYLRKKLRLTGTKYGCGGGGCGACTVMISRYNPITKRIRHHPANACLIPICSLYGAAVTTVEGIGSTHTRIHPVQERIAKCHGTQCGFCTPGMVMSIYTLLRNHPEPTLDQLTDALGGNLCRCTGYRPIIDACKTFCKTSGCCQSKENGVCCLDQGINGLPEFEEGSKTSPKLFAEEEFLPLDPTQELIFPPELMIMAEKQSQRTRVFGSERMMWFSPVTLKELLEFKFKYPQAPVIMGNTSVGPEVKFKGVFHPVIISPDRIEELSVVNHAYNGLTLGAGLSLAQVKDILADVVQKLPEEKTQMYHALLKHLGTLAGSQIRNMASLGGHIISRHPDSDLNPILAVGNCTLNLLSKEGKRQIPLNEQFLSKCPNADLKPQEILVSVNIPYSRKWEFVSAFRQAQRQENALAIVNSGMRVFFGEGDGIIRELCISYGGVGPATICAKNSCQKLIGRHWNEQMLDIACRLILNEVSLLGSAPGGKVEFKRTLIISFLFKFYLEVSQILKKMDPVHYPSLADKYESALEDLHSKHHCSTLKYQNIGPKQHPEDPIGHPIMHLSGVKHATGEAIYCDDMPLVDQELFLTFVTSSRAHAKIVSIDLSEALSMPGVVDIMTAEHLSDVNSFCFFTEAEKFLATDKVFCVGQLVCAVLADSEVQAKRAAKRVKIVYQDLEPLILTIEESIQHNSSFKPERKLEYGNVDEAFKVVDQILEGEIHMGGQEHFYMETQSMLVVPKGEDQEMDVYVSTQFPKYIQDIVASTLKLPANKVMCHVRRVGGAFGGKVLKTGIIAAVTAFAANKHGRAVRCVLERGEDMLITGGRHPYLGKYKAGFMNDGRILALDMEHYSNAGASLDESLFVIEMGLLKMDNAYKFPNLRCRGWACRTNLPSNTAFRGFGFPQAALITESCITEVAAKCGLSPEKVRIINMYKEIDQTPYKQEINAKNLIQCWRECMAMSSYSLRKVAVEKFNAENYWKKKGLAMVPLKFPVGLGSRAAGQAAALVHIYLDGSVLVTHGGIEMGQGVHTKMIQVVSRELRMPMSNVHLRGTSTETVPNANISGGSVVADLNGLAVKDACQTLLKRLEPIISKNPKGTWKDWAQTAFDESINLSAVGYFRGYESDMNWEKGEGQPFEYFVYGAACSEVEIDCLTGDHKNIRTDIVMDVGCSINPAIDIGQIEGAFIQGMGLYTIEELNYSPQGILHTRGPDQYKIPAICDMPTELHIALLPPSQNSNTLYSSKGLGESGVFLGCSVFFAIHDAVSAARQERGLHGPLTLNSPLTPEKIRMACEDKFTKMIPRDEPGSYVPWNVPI

[15] = Clearance in human hepatocytes assessed per million cells at 1 uM by LC-MS/MS analysis; assay type: ADME, cell-based, Hepatocyte
[16] = Cytotoxicity against HFF monolayers assessed as cell growth measured after 72 hrs by luciferase reporter gene assay relative to control; assay type: cell-based; conditions: human, read-out: Activity
[17] = Intrinsic clearance in human liver microsomes at 10 uM preincubated for 10 mins followed by NADPH addition by LC-MS/MS analysis; assay type: ADME, Microsome; conditions: read-out: CLH
[18] = Inhibition of Toxoplasma gondii full-length C-terminal His-tagged CDPK1 G128M mutant expressed in Escherichia coli BL21(DE3)V2RpAcYc-LIC+LamP using syntide-2 peptide as substrate incubated for 20 to 40 mins by ELISA
[19] = Cmax in CD1 mouse at 3 mg/kg, iv or 10 mg/kg, po administered via gavage by LC-MS/MS analysis; assay type: ADME, organism-based; conditions: in vivo
[20] = molecular target: Proto-oncogene tyrosine-protein kinase Src (Homo sapiens, UniProt P12931); assay: Inhibition of human Src expressed in Escherichia coli BL21 using Abltide peptide as substrate incubated for 20 to 40 mins by ELISA
Chain of Proto-oncogene tyrosine-protein kinase Src (P12931 2-536 limits assumed): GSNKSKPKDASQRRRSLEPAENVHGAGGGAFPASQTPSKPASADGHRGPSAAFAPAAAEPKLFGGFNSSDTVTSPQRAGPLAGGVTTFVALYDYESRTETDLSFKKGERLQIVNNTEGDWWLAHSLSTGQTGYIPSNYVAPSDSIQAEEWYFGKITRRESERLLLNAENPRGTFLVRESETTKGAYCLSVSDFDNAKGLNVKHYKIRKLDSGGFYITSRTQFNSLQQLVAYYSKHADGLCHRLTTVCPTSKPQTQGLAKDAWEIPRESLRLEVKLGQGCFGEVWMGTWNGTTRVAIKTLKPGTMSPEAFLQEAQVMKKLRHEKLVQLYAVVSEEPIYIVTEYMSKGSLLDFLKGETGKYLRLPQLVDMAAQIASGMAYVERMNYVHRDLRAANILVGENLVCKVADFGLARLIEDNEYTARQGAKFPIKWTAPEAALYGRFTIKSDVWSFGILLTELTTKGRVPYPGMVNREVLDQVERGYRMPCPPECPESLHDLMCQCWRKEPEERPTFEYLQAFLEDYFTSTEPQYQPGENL

[21] = Protein binding in mouse plasma assessed as unbound fraction at 2 uM measured after 4 hrs by LC-MS/MS analysis; assay type: ADME, cell-free
Toxoplasma gondii [22] = assay: Antiparasitic activity against 2F clone of type 1 Toxoplasma gondii RH tachyzoites expressing beta-galactosidase infected in HFF assessed as reduction in parasite growth measured after 72 hrs by chlorophenol Red-beta-D-galactopyranoside substrate based assay; assay type: functional, organism-based
[23] = Half life in mouse liver microsomes at 10 uM preincubated for 10 mins followed by NADPH addition by LC-MS/MS analysis; assay type: ADME, Microsome; conditions: for t1/2: microsomes, 10 µM
Toxoplasma gondii [24] = assay: Antiparasitic activity against Toxoplasma gondii type III CTG tachyzoites infected in HFF assessed as reduction in parasite growth; assay type: functional, organism-based
[25] = AUC in CD1 mouse at 3 mg/kg, iv or 10 mg/kg, po administered via gavage by LC-MS/MS analysis; assay type: ADME, organism-based; conditions: in vivo
[26] = Cytotoxicity against human HepG2 cells assessed as cell growth at 20 uM measured after 72 hrs by cellTiter 96 AQueous non-radioactive cell proliferation assay relative to control; assay type: cell-based; conditions: read-out: Activity
[27] = Cytotoxicity against human SH-SY5Y cells assessed as cell growth at 20 uM measured after 72 hrs by cellTiter 96 AQueous non-radioactive cell proliferation assay relative to control; assay type: cell-based; conditions: read-out: Activity

SMILES: Nc1ncnc2c1c(Oc1cc(C(F)(F)F)ccn1)nn2[C@@H]1CCCC[C@H]1O
half-life at 10 µM [1]: > 145 min | inhibition at 10 µM (LCK): 45% | IC50 [2]: > 30000 nM | t1/2 [3]: 130 min | IC50 [4]: 6.6 nM | efflux ratio at […], 2 µM (MDR1): 1.23 | viability at 72 h, 20 µM [5]: 100% | viability at 72 h, 20 µM [6]: 77.3% | viability at 72 h, 20 µM [7]: 126% | Kinetic_solubility [8]: 92.73 µM | EC50 (Toxoplasma gondii [9]): 89.6 nM | fraction unbound [10]: 0.041 | selectivity ratio [11]: > 1000 | bioavailability [12]: 48.9% | Kp at 8 h [13]: 0.47 | Papp [14]: 21.43 ×10⁻⁶ cm/s | Drug metabolism (Aldehyde oxidase): < 3.2 µL/min/mg | CLH [15]: < 6.4 µL/min/1e6 cells | viability at 72 h [16]: 107% | CLint scaled at 10 µM [17]: < 8.6 mL/min/kg | IC50 [18]: > 20000 nM | Cmax [19]: 620 ng/mL | IC50 [20]: > 20000 nM | Fu [21]: 24.3% | EC50 (Toxoplasma gondii [22]): 77 to 77.5 nM | t1/2 [23]: 66 min | EC50 (Toxoplasma gondii [24]): 227 nM | AUC [25]: 1100 ng·h/mL | viability at 72 h, 20 µM [26]: 99% | viability at 72 h, 20 µM [27]: 105%

SMILES: Nc1ncnc2c1c(Oc1cc(Cl)ccn1)nn2CC1CC1
t1/2 [1]: 47 min | IC50 [4]: 9 nM | EC50 (Toxoplasma gondii [22]): 71 nM | t1/2 [23]: 4 min

SMILES: CN(C)C1CCC(n2nc(Oc3cc(C(F)(F)F)ccn3)c3c(N)ncnc32)CC1 (centres undefined)
half-life at 10 µM [1]: > 145 min | IC50 [4]: 28 nM | EC50 (Toxoplasma gondii [22]): 40 nM | t1/2 [23]: 17 min

SMILES: N#Cc1ccnc(Oc2nn([C@H]3C[C@H](O)C3)c3ncnc(N)c23)c1
half-life at 10 µM [1]: > 145 min | IC50 [4]: 38 nM | EC50 (Toxoplasma gondii [22]): 699 nM | half-life at 10 µM ([23]; liver microsomes): > 145 min

SMILES: Nc1ncnc2c1c(Oc1cc(C(F)(F)F)ccn1)nn2[C@H]1CC[C@@H](CO)CC1
t1/2 [1]: 96 min | IC50 [4]: 15 nM | EC50 (Toxoplasma gondii [22]): 70 nM | t1/2 [23]: 6.5 min

SMILES: CO[C@H]1CC[C@@H](n2nc(Oc3cc(C(F)(F)F)ccn3)c3c(N)ncnc32)CC1
t1/2 [1]: 19 min | IC50 [4]: 45 nM | EC50 (Toxoplasma gondii [22]): 84 nM | t1/2 [23]: 2 min

t1/2 [1]: 84 min | t1/2 [23]: 37 min
SMILES: CC(C)(C)n1nc(Oc2cc(O)ccn2)c2c(N)ncnc21
IC50 [4]: 14 nM | EC50 (Toxoplasma gondii [22]): 17 nM

SMILES: Nc1ncnc2c1c(Oc1cc(Cl)ccn1)nn2[C@H]1C[C@H](F)C1
t1/2 [1]: 50 min | IC50 [4]: 11 nM | EC50 (Toxoplasma gondii [22]): 53 nM | t1/2 [23]: 7.6 min

SMILES: Nc1ncnc2c1c(Oc1cc(O)ccn1)nn2[C@H]1C[C@H](F)C1
t1/2 [1]: 62 min | IC50 [4]: 8.6 nM | EC50 (Toxoplasma gondii [22]): 205 nM | t1/2 [23]: 16 min

SMILES: CO[C@@]12[C@H](COC(N)=O)C3=C(C(=O)C(C)=C(N)C3=O)N1C[C@@H]1N[C@@H]12 [MITOMYCIN]
viability at 72 h, 20 µM [7]: 5% | viability at 72 h [16]: 25.8% | viability at 72 h, 20 µM [27]: 0%

SMILES: Nc1ncnc2c1c(Oc1cc(C(F)(F)F)ccn1)nn2[C@H]1CC[C@@H](N)CC1
half-life at 10 µM [1]: > 145 min | IC50 [4]: 23 nM | EC50 (Toxoplasma gondii [22]): 71 nM | t1/2 [23]: 55 min
